Laboratory results taken from the NIST ThermoML archive (doi:10.1016/j.jct.2016.01.017).
± gives the expanded uncertainty stated by the source.

Experiment: activity coefficient (dimensionless); of the first substance listed, at infinite dilution; xn = mol fraction of the nth substance listed
Conditions: 100 kPa, Liquid, Chromatography, x1 = 0

| SMILES | activity coefficient (308.15 K) | activity coefficient (318.15 K) | activity coefficient (328.15 K) | activity coefficient (338.15 K) | activity coefficient (348.15 K) | activity coefficient (358.15 K) | activity coefficient (368.15 K) |
| --- | --- | --- | --- | --- | --- | --- | --- |
| C1CCCCC1 [cyclohexane] + CCCC[n+]1ccc(C#N)cc1.O=S(=O)([N-]S(=O)(=O)C(F)(F)F)C(F)(F)F | 17.7 ± 1.5 | 16.3 ± 1.4 | 15.1 ± 1.3 | 14.2 ± 1.2 | 13.2 ± 1.1 | 12.4 ± 1.1 | 11.7 ± 1 |
| C1=CCCCC1 [cyclohexene] + CCCC[n+]1ccc(C#N)cc1.O=S(=O)([N-]S(=O)(=O)C(F)(F)F)C(F)(F)F | 7.51 ± 0.65 | 7.4 ± 0.64 | 7.28 ± 0.63 | 7.19 ± 0.62 | 7.1 ± 0.61 | 7.1 ± 0.61 | 6.9 ± 0.6 |
| C1CCCCCCC1 [cyclooctane] + CCCC[n+]1ccc(C#N)cc1.O=S(=O)([N-]S(=O)(=O)C(F)(F)F)C(F)(F)F | 26.5 ± 2.3 | 25.2 ± 2.2 | 24.1 ± 2.1 | 23.2 ± 2 | 22.4 ± 1.9 | 21.6 ± 1.9 | 20.9 ± 1.8 |
| C1CCCC1 [cyclopentane] + CCCC[n+]1ccc(C#N)cc1.O=S(=O)([N-]S(=O)(=O)C(F)(F)F)C(F)(F)F | 12.7 ± 1.1 | 11.6 ± 1 | 10.7 ± 0.9 | 9.97 ± 0.86 | 9.31 ± 0.8 | 8.69 ± 0.75 | 8.14 ± 0.7 |
| CCCCCCCCCC [decane] + CCCC[n+]1ccc(C#N)cc1.O=S(=O)([N-]S(=O)(=O)C(F)(F)F)C(F)(F)F | 124 ± 11 | 115 ± 10 | 107 ± 9 | 99.8 ± 8.6 | 93.8 ± 8.1 | 88.2 ± 7.6 | 83.6 ± 7.2 |
| CCOCC [diethyl ether] + CCCC[n+]1ccc(C#N)cc1.O=S(=O)([N-]S(=O)(=O)C(F)(F)F)C(F)(F)F | 3.17 ± 0.27 | 3.24 ± 0.28 | 3.31 ± 0.29 | 3.37 ± 0.29 | 3.44 ± 0.3 | 3.5 ± 0.3 | 3.56 ± 0.31 |
| CC(C)OC(C)C [diisopropyl ether] + CCCC[n+]1ccc(C#N)cc1.O=S(=O)([N-]S(=O)(=O)C(F)(F)F)C(F)(F)F | 9.7 ± 0.84 | 9.65 ± 0.83 | 9.59 ± 0.83 | 9.57 ± 0.83 | 9.53 ± 0.82 | 9.48 ± 0.82 | 9.45 ± 0.82 |
| CCCOCCC [dipropyl ether] + CCCC[n+]1ccc(C#N)cc1.O=S(=O)([N-]S(=O)(=O)C(F)(F)F)C(F)(F)F | 8.88 ± 0.77 | 8.84 ± 0.76 | 8.83 ± 0.76 | 8.78 ± 0.76 | 8.75 ± 0.76 | 8.73 ± 0.75 | 8.71 ± 0.75 |
| CCO [ethanol] + CCCC[n+]1ccc(C#N)cc1.O=S(=O)([N-]S(=O)(=O)C(F)(F)F)C(F)(F)F | 1.86 ± 0.16 | 1.74 ± 0.15 | 1.64 ± 0.14 | 1.55 ± 0.13 | 1.47 ± 0.12 | 1.39 ± 0.12 | 1.33 ± 0.11 |
| CCOC(C)=O [ethyl acetate] + CCCC[n+]1ccc(C#N)cc1.O=S(=O)([N-]S(=O)(=O)C(F)(F)F)C(F)(F)F | 0.839 ± 0.07 | 0.89 ± 0.074 | 0.941 ± 0.077 | 0.995 ± 0.082 | 1.05 ± 0.09 | 1.1 ± 0.09 | 1.15 ± 0.1 |
| CCc1ccccc1 [ethylbenzene] + CCCC[n+]1ccc(C#N)cc1.O=S(=O)([N-]S(=O)(=O)C(F)(F)F)C(F)(F)F | 2.49 ± 0.21 | 2.58 ± 0.22 | 2.67 ± 0.23 | 2.77 ± 0.24 | 2.85 ± 0.25 | 2.93 ± 0.25 | 3.03 ± 0.26 |
| CCCCCCC [heptane] + CCCC[n+]1ccc(C#N)cc1.O=S(=O)([N-]S(=O)(=O)C(F)(F)F)C(F)(F)F | 45.8 ± 4 | 42.5 ± 3.7 | 39.8 ± 3.4 | 37.4 ± 3.2 | 35.3 ± 3.1 | 33.5 ± 2.9 | 31.7 ± 2.7 |
| C=CCCCC [hex-1-ene] + CCCC[n+]1ccc(C#N)cc1.O=S(=O)([N-]S(=O)(=O)C(F)(F)F)C(F)(F)F | 14.1 ± 1.2 | 13.8 ± 1.2 | 13.5 ± 1.2 | 13.2 ± 1.1 | 12.9 ± 1.1 | 12.7 ± 1.1 | 12.5 ± 1.1 |
| CCCCCC [hexane] + CCCC[n+]1ccc(C#N)cc1.O=S(=O)([N-]S(=O)(=O)C(F)(F)F)C(F)(F)F | 33 ± 2.9 | 30.7 ± 2.7 | 28.8 ± 2.5 | 27.1 ± 2.3 | 25.6 ± 2.2 | 24.2 ± 2.1 | 23.1 ± 2 |
| CC(C)c1ccccc1 [isopropylbenzene] + CCCC[n+]1ccc(C#N)cc1.O=S(=O)([N-]S(=O)(=O)C(F)(F)F)C(F)(F)F | 4.04 ± 0.35 | 4.13 ± 0.36 | 4.22 ± 0.36 | 4.31 ± 0.37 | 4.39 ± 0.38 | 4.47 ± 0.39 | 4.56 ± 0.39 |
| CO [methanol] + CCCC[n+]1ccc(C#N)cc1.O=S(=O)([N-]S(=O)(=O)C(F)(F)F)C(F)(F)F | 1.33 ± 0.11 | 1.27 ± 0.11 | 1.21 ± 0.1 | 1.17 ± 0.1 | 1.12 ± 0.09 | 1.08 ± 0.09 | 1.05 ± 0.09 |
| CCCC(=O)OC [methyl butanoate] + CCCC[n+]1ccc(C#N)cc1.O=S(=O)([N-]S(=O)(=O)C(F)(F)F)C(F)(F)F | 1.15 ± 0.1 | 1.22 ± 0.1 | 1.28 ± 0.11 | 1.35 ± 0.11 | 1.42 ± 0.12 | 1.48 ± 0.13 | 1.55 ± 0.13 |
| COC(C)=O [methyl ethanoate] + CCCC[n+]1ccc(C#N)cc1.O=S(=O)([N-]S(=O)(=O)C(F)(F)F)C(F)(F)F | 0.607 ± 0.053 | 0.646 ± 0.056 | 0.685 ± 0.059 | 0.724 ± 0.061 | 0.762 ± 0.064 | 0.8 ± 0.067 | 0.839 ± 0.07 |
| CCC(=O)OC [methyl propanoate] + CCCC[n+]1ccc(C#N)cc1.O=S(=O)([N-]S(=O)(=O)C(F)(F)F)C(F)(F)F | 0.8 ± 0.067 | 0.855 ± 0.071 | 0.905 ± 0.075 | 0.956 ± 0.079 | 1.01 ± 0.08 | 1.06 ± 0.09 | 1.11 ± 0.09 |
| CC1CCCCC1 [methylcyclohexane] + CCCC[n+]1ccc(C#N)cc1.O=S(=O)([N-]S(=O)(=O)C(F)(F)F)C(F)(F)F | 23.4 ± 2 | 21.8 ± 1.9 | 20.4 ± 1.8 | 19.1 ± 1.7 | 18 ± 2 | 17.1 ± 1.5 | 16.2 ± 1.4 |
| CCCCCCCCC [nonane] + CCCC[n+]1ccc(C#N)cc1.O=S(=O)([N-]S(=O)(=O)C(F)(F)F)C(F)(F)F | 92.9 ± 8 | 85.9 ± 7.4 | 79.8 ± 6.9 | 74.1 ± 6.4 | 69.4 ± 6 | 65.3 ± 5.7 | 61.5 ± 5.3 |
